Reference: patent US10464941B2, “Therapeutic compounds” (REGENTS OF THE UNIVERSITY OF MINNESOTA, priority 2015, dated 2019)
Marks after values point to notes of the source that are not given here.

What was measured:
LPS-pretreated mice = test: animal or person; conditions: for LPS pretreated ED50 (CI) i.t. / LPS pretreated i.c.v./i.t. ratio / LPS pretreated ED50 (CI) i.c.v.: LPS 1 mg/kg 24 hours i.p.; for LPS pretreated ED50 (CI) i.t. / LPS pretreated ED50 (CI) i.c.v.: tail flick; for percent maximal possible effect at highest dose measured: 1000 pmol/mouse; for ED50 values (95% CI) LPS (thermal): LPS thermal hyperalgesia model; for Relative Potency relative to a mixture of monovalent mu agonist (4) and CCR5 antagonist (2): mouse, in vivo
Description: Male ICR-CD1 mice (17-25 g; Harlan, Madison, Wis.), C3H mice (15-20 g, National Cancer Institute, Bethesda, Md.) or TLR4 knock-out mice (gift from Dr. Sabita Roy) were housed, 4 to a small box in a temperature- and humidity-controlled environment with unlimited access to food and water. They were maintained on a 12 h light/dark cycle. All experiments were approved by the Institutional Animal Care and Use Committee of the University of Minnesota (Minneapolis, Minn.).
The tail flick assay is used to test for antinociception described by D'Amour and Smith^64 and modified by Dewey et. al.^65 Mice are held gently in one hand with the tail positioned in the apparatus (Tail Flick Analgesia Meter, Columbus Instruments, Columbus, Ohio) for radiant heat stimulus. The tail-flick response is elicited by applying radiant heat to the dorsal side of the tail. The test latency is measured before drug treatment (control) and again after the drug treatment (test) at the peak time of the compound, a 10 s maximum cut-off time is used to prevent damage to the tail. Antinociception is quantified according to the method of Harris and Pierson^66 as the percent maximal possible effect (% MPE) which is calculated as: % MPE=(Test−Control/10−Control)×100
A minimum of three groups of eight to ten mice are used for each dose response curve, and each mouse is used only once.
The compounds were tested for acute tolerance by comparing the ED80-90 dose measured on day 1 to the same dose administered and retested 24 hours later on the same mouse.
Compounds were dissolved in 5% DMSO and diluted to less than 1% DMSO for injection. These compounds were administered in a volume of 5-μl either i.c.v (Haley and McCormick) or intrathecal (i.t.) as described for mice by Hylden and Wilcox^67 in conscious mice. […] Time course studies, including the times 5, 10, 20, 30 and 60 minutes were used to determine the peak antinociception.
Pain is a hallmark of many inflammatory conditions. […] Antinociception was evaluated using the radiant heat-induced tailflick assay. Morphine was employed as a standard opioid agonist under these conditions.

control mice = test: Radiant heat tail-flick antinociception, control (LPS-untreated) mice; type: in vivo; conditions: control mice; for CONTROLS ED50 (CI) i.c.v. / CONTROLS ED50 (CI) i.t.: tail flick
From the text: Pain is a hallmark of many inflammatory conditions.

[1] = tested on: CFA-induced mechanical hyperalgesia mouse model; test: Complete Freund's Adjuvant (CFA) mechanical hyperalgesia, electronic von Frey; type: in vivo, mice; conditions: i.t.
Description: Before injection of CFA baseline withdrawal thresholds (g) were obtained from a mechanical stimulation using an electronic von Frey anesthesiometer (IITC Life Sciences, Woodland Hills, USA) by applying an accurate force on both left and right hind paw. (2,3) The left hindpaws were then injected (intraplantar) with a 50% solution of CFA (10 μg, Sigma-Aldrich) in water while the mice are under isoflurane anesthesia (10). Twenty-four hours later the withdrawal threshold (g) was again measured prior to and after the test compound i.t. at 10, 20, 30 and 60 minutes to determine the peak time and subsequent ED50. % MPE was calculated ((Time-point withdrawal threshold with drug−CFA withdrawal threshold)/(Day 0 withdrawal threshold−CFA withdrawal threshold))*100 (Wade, C. L., et al., PLoS One 2013, 8, e79239/1-e79239/11, 11 pp; Martinov, T., et al., J Vis Exp 2013, e51212; Sorge, R. E., et al., J. Neurosci. 2011, 31, 15450-15454).

SMILES | LPS pretreated ED50 (CI) i.t. (LPS-pretreated mice; i.t.) | percent maximal possible effect at highest dose measured (LPS-pretreated mice; LPS pretreated, i.c.v.) | CONTROLS i.c.v./i.t. ratio (control mice) | percent maximal possible effect at highest dose measured (control mice; i.c.v., 1000 pmol/mouse) | percent maximal possible effect at highest dose measured (control mice; i.t., 1000 pmol/mouse) | LPS pretreated i.c.v./i.t. ratio (LPS-pretreated mice) | LPS pretreated ED50 (CI) i.c.v. (LPS-pretreated mice; i.c.v.) | ED50 values (95% CI) LPS (thermal) (LPS-pretreated mice; i.t.) | Relative Potency relative to a mixture of monovalent mu agonist (4) and CCR5 antagonist (2) (LPS-pretreated mice) | acute tolerance (ED80 retested 24 hours later) (control mice; i.c.v.) | CONTROLS ED50 (CI) i.c.v. (control mice; i.c.v.) | acute tolerance (ED80 retested 24 hours later) (control mice; i.t.) | CONTROLS ED50 (CI) i.t. (control mice; i.t.) | ED50 values (95% CI) CFA (mechanical) [1] | percent maximal possible effect at highest dose measured (control mice; i.c.v., 250 pmol/mouse) | % MPE still present 24 hours later (LPS-pretreated mice; LPS pretreated, i.t., 24 hours later) | percent maximal possible effect at highest dose measured (LPS-pretreated mice; LPS pretreated, i.t.) | percent maximal possible effect at highest dose measured (control mice; i.t., 500 pmol/mouse)
CC(=O)N1CCC(C(=O)N(CCCN2CCC(Cc3ccc(C(N)=O)cc3)CC2)c2ccc(C)c(Cl)c2)CC1 [Compound 2, TAK-220, reference compound] | 740 pmol/mouse | 7.6 ± 1.5% | 1 | 26.2 ± 5.9% | 34.2 ± 10.8% | – | – | – | – | – | – | – | – | – | – | – | – | –
Cc1ccc(N(CCCN2CCC(Cc3ccc(C(N)=O)cc3)CC2)C(=O)C2CCN(C(=O)COCC(=O)NCCNC(=O)COCC(=O)N[C@H]3CC[C@@]4(O)C5Cc6ccc(O)c7c6[C@@]4(CCN5C)[C@H]3O7)CC2)cc1Cl [Compound 3a, N-(3-(4-(4-carbamoylbenzyl)piperidin-1-yl)propyl)-N-(3-chloro-4-methylphenyl)-1-(14-(((4aS,7S,7aR,12bS)-4a,9-dihydroxy-3-methyl-2,3,4,4a,5,6,7,7a-octahydro-1H-4,12-methanobenzofuro[3,2-e]isoquinolin-7-yl)amino)-5,10,14-trioxo-3,12-dioxa-6,9-diazatetradecan-1-oyl)piperidine-4-carboxamide] | 10.6 pmol/mouse | – | 3.29 | – | – | 5.32 | 56.41 pmol/mouse | 11 pmol/mouse | 4.9 | (78.2-145)^c | 107 pmol/mouse | (27.3-38.4)^b | 32.3 pmol/mouse | 3 pmol/mouse | – | – | – | –
Cc1ccc(N(CCCN2CCC(Cc3ccc(C(N)=O)cc3)CC2)C(=O)C2CCN(C(=O)COCC(=O)NCCCCCNC(=O)COCC(=O)N[C@H]3CC[C@@]4(O)C5Cc6ccc(O)c7c6[C@@]4(CCN5C)[C@H]3O7)CC2)cc1Cl [Compound 3b, N-(3-(4-(4-carbamoylbenzyl)piperidin-1-yl)propyl)-N-(3-chloro-4-methylphenyl)-1-(17-(((4aS,7S,7aR,12bS)-4a,9-dihydroxy-3-methyl-2,3,4,4a,5,6,7,7a-octahydro-1H-4,12-methanobenzofuro[3,2-e]isoquinolin-7-yl)amino)-5,13,17-trioxo-3,15-dioxa-6,12-diazaheptadecan-1-oyl)piperidine-4-carboxamide] | 10.9 pmol/mouse | – | 3.14 | – | – | 6.38 | 187 pmol/mouse | – | 4.8 | (166-72.2)^c | 358 pmol/mouse | (253-543)^c | 371 pmol/mouse | – | – | – | – | –
Cc1ccc(N(CCCN2CCC(Cc3ccc(C(N)=O)cc3)CC2)C(=O)C2CCN(C(=O)COCC(=O)NCCCCCCCNC(=O)COCC(=O)N[C@H]3CC[C@@]4(O)C5Cc6ccc(O)c7c6[C@@]4(CCN5C)[C@H]3O7)CC2)cc1Cl [Compound 3c, N-(3-(4-(4-carbamoylbenzyl)piperidin-1-yl)propyl)-N-(3-chloro-4-methylphenyl)-1-(19-(((4aS,7S,7aR,12bS)-4a,9-dihydroxy-3-methyl-2,3,4,4a,5,6,7,7a-octahydro-1H-4,12-methanobenzofuro[3,2-e]isoquinolin-7-yl)amino)-5,15,19-trioxo-3,17-dioxa-6,14-diazanonadecan-1-oyl)piperidine-4-carboxamide] | 11.4 pmol/mouse | – | – | – | – | 60.7 | 692 pmol/mouse | – | 4.6 | – | – | (54.6-507)^c | 166 pmol/mouse | – | 35.9 ± 9.0% | – | – | –
Cc1ccc(N(CCCN2CCC(Cc3ccc(C(N)=O)cc3)CC2)C(=O)C2CCN(C(=O)COCC(=O)NCCCCCCCCCNC(=O)COCC(=O)N[C@H]3CC[C@@]4(O)C5Cc6ccc(O)c7c6[C@@]4(CCN5C)[C@H]3O7)CC2)cc1Cl [Compound 3d, N-(3-(4-(4-carbamoylbenzyl)piperidin-1-yl)propyl)-N-(3-chloro-4-methylphenyl)-1-(21-(((4aS,7S,7aR,12bS)-4a,9-dihydroxy-3-methyl-2,3,4,4a,5,6,7,7a-octahydro-1H-4,12-methanobenzofuro[3,2-e]isoquinolin-7-yl)amino)-5,17,21-trioxo-3,19-dioxa-6,16-diazahenicosan-1-oyl)piperidine-4-carboxamide] | 8.43 pmol/mouse | 63.1 ± 45.2% | 63.98 | 54.5 ± 14.5^ % | – | 118.62 | – | – | 6.2 | – | – | – | 15.83 pmol/mouse | – | – | 24% MPE | – | –
Cc1ccc(N(CCCN2CCC(Cc3ccc(C(N)=O)cc3)CC2)C(=O)C2CCN(C(=O)COCC(=O)NCCCCCCCCCCCCNC(=O)COCC(=O)N[C@H]3CC[C@@]4(O)C5Cc6ccc(O)c7c6[C@@]4(CCN5C)[C@H]3O7)CC2)cc1Cl [Compound 3f, N-(3-(4-(4-carbamoylbenzyl)piperidin-1-yl)propyl)-N-(3-chloro-4-methylphenyl)-1-(24-(((4aS,7S,7aR,12bS)-4a,9-dihydroxy-3-methyl-2,3,4,4a,5,6,7,7a-octahydro-1H-4,12-methanobenzofuro[3,2-e]isoquinolin-7-yl)amino)-5,20,24-trioxo-3,22-dioxa-6,19-diazatetracosan-1-oyl)piperidine-4-carboxamide] | 122.70 pmol/mouse | 55.7 ± 11.2% | ~2.97 | 27.6 ± 9.1% | – | 8.15^d | – | 123 pmol/mouse | 0.4 | – | – | – | 336.9 pmol/mouse | 58 pmol/mouse | – | – | – | –
CNC(=O)COCC(=O)NCCCCCCCNC(=O)COCC(=O)N1CCC(C(=O)N(CCCN2CCC(Cc3ccc(C(N)=O)cc3)CC2)c2ccc(C)c(Cl)c2)CC1 [Compound 5, N-(3-(4-(4-carbamoylbenzyl)piperidin-1-yl)propyl)-N-(3-chloro-4-methylphenyl)-1-(3,7,17-trioxo-5,19-dioxa-2,8,16-triazahenicosan-21-oyl)piperidine-4-carboxamide] | – | 51.9 ± 12.3% | – | – | – | – | – | – | – | – | 505 pmol/mouse | – | – | – | – | – | 32.4 ± 12.5% | 28.1 ± 11.3%
